In brackets after ≈: the same amount, converted by molar mass.

In one assay the test system is Escherichia coli ATCC 25922. In words: Minimal Inhibitory Concentration (MIC) determination, broth microdilution (CLSI M07-A10). Type of assay: cell-based. The settings on record: Escherichia coli, ATCC25922, read-out: Escherichia coli growth inhibition MIC, strain Escherichia coli ATCC 25922, 18-24 hours at 35±2° C., lowest concentration for complete growth inhibition (no visible growth). The protocol:
Minimal Inhibitory Concentration (MIC) Determination:
The MIC of antibacterial compounds against multiple species and strains was determined using the broth microdilution method according to M07-A10 Clinical and Laboratory Standards Institute (CLSI) guidelines, using the appropriate broth medium. In short, the compound plates were prepared by dispensing 100 μL of each stock solution in the first well of a 96 well microtiter plate (MTP) at a concentration 100-fold higher than the final concentration desired in broth. Eleven serial 2-fold dilutions of the highest concentration were made in DMSO for new compounds and in water (or appropriate solution) for reference compounds [2]. 1 μL of each well was transferred in a new MTP, which served as the test plate by subsequent inoculation. This bacterial suspension was prepared from strains that were first sub-cultured on agar plates and incubated for 18-24 hours as appropriate. Following incubation, the inoculum was prepared from isolated colonies and adjusted to 0.5 McFarland turbidity standard (1 to 2×10^8 Colony Forming Units (CFU)/mL) in 0.9% saline. The bacterial suspension was then diluted 1:200 in appropriate sterile medium and within 15 minutes 100 μL/well were dispensed. Negative controls (lack of bacterial cells) and growth control wells (lack of compound) were included in all plates. MTPs were incubated for 18-24 hours at 35±2° C. in ambient air. The MIC value of each compound, expressed as μg/mL, was determined as the lowest concentration required for complete growth inhibition (no visible growth). • [1] CLSI (2015) Methods for dilution antimicrobial susceptibility tests for bacteria that grow aerobically; Approved Standard, Tenth Edition. CLSI Document M7-A10 (ISBN 1-56238-987-4). Wayne, PA: Clinical and Laboratory Standards Institute, 19087, USA. • [2] CLSI (2017) Performance Standards for Antimicrobial Susceptibility Testing; Twenty-Fifth Informational Supplement. CLSI Document M100-S27, CLSI, Wayne, Pennsylvania 19087, USA.
Table 1 provides the Minimal Inhibitory Concentrations (MIC) in micrograms per millilitre of the compounds of present invention obtained against the strain Escherichia coli ATCC 25922.
As to `O=C1COc2ncc(N3CC4(CCN(CC5Cc6cc7nnn(C8CNC8)c7c(F)c6C5)CC4)OC3=O)nc2N1` (single isomer, unassigned) [Example 113, formic acid], the MIC amounted to 0.125 µg/mL (≈ 0.227 µM).

Still in this assay, the particulars now being: Escherichia coli, ATCC25922, strain Escherichia coli ATCC 25922, 18-24 hours at 35±2° C., lowest concentration for complete growth inhibition (no visible growth), read-out: Escherichia coli growth inhibition MIC.
As for `O=C1COc2ncc(N3CC4(CCN(CC5Cc6cc7nc([C@@H]8CCN8)oc7c(F)c6C5)CC4)OC3=O)nc2N1` (single isomer, unassigned) [Example 106], the MIC is 0.125 µg/mL (≈ 0.227 µM).

On to `O=C1COc2ncc(N3CC4(CCN(CC5Cc6cc7nc([C@H]8CCN8)oc7c(F)c6C5)CC4)OC3=O)nc2N1` (single isomer, unassigned) [Example 108], for which the MIC came to 0.25 µg/mL (≈ 0.455 µM).

Regarding `O=C1COc2ncc(N3CC4(CCN(CC5Cc6cc7nn(C8CNC8)nc7c(F)c6C5)CC4)OC3=O)nc2N1` (single isomer, unassigned) [Example 109, 6-[2-oxo-8-[[2-(azetidin-3-yl)-8-fluoro-6,7-dihydro-5H-cyclopenta[f]benzotriazol-6-yl]methyl]-1-oxa-3,8-diazaspiro[4.5]decan-3-yl]-4H-pyrazino[2,3-b][1,4]oxazin-3-one], the MIC was 0.5 µg/mL (≈ 0.91 µM).

`O=C1COc2ccc(N3CC4(CCN(CC5Cc6cc7nc(C8CNC8)oc7c(F)c6C5)CC4)OC3=O)nc2N1` (single isomer, unassigned) [Example 111, 6-[8-[[2-(azetidin-3-yl)-8-fluoro-6,7-dihydro-5H-cyclopenta[f][1,3]benzoxazol-6-yl]methyl]-2-oxo-1-oxa-3,8-diazaspiro[4.5]decan-3-yl]-4H-pyrido[3,2-b][1,4]oxazin-3-one]: the MIC is 0.5 µg/mL (≈ 0.911 µM).

Consider `O=C1COc2ncc(N3CC4(CCN(CC5Cc6cc7nnn(C8CNC8)c7c(F)c6C5)CC4)OC3=O)nc2N1.O=CO` (single isomer, unassigned) [Example 114], for which the MIC was found to be 0.25 µg/mL.

Turning to `O=C1COc2ncc(N3CC4(CCN(CC5Cc6cc7c(nnn7C7CNC7)c(F)c6C5)CC4)OC3=O)nc2N1.O=CO` (single isomer, unassigned) [Example 115, 6-[2-oxo-8-[[3-(azetidin-3-yl)-8-fluoro-6,7-dihydro-5H-cyclopenta[f]benzotriazol-6-yl]methyl]-1-oxa-3,8-diazaspiro[4.5]decan-3-yl]-4H-pyrazino[2,3-b][1,4]oxazin-3-one; formic acid], the MIC was found to be 0.5 µg/mL.

The same assay, now with this note: strain Escherichia coli ATCC 25922, 18-24 hours at 35±2° C., lowest concentration for complete growth inhibition (no visible growth).
Regarding `NCc1nc2cc3c(c(F)c2o1)CC(CN1CCC2(CC1)CN(c1cnc4c(n1)NC(=O)CO4)C(=O)O2)C3` (single isomer, unassigned) [Example 105, 6-[2-oxo-8-[[2-(aminomethyl)-8-fluoro-6,7-dihydro-5H-cyclopenta[f][1,3]benzoxazol-6-yl]methyl]-1-oxa-3,8-diazaspiro[4.5]decan-3-yl]-4H-pyrazino[2,3-b][1,4]oxazin-3-one], the “Escherichia coli growth inhibition MIC” value is 0.25 µg/mL.

For `O=C1COc2ncc(N3CC4(CCN(CC5Cc6cc7nn(C8CNC8)nc7c(F)c6C5)CC4)OC3=O)nc2N1` (single isomer, unassigned) [Example 110, 6-[2-oxo-8-[[2-(azetidin-3-yl)-8-fluoro-6,7-dihydro-5H-cyclopenta[f]benzotriazol-6-yl]methyl]-1-oxa-3,8-diazaspiro[4.5]decan-3-yl]-4H-pyrazino[2,3-b][1,4]oxazin-3-one], the “Escherichia coli growth inhibition MIC” value was 1 µg/mL.

For `O=C1COc2ccc(N3CC4(CCN(CC5Cc6cc7nc(C8CNC8)oc7c(F)c6C5)CC4)OC3=O)nc2N1` (single isomer, unassigned) [Example 112, 6-[8-[[2-(azetidin-3-yl)-8-fluoro-6,7-dihydro-5H-cyclopenta[f][1,3]benzoxazol-6-yl]methyl]-2-oxo-1-oxa-3,8-diazaspiro[4.5]decan-3-yl]-4H-pyrido[3,2-b][1,4]oxazin-3-one], the “Escherichia coli growth inhibition MIC” value came to 0.5 µg/mL.

These data come from patent US20240252506A1 (Hoffmann-La Roche Inc., priority 2021, published 2024).
